Our source for the IC50 values is US9409907B2, “Inhibitor compounds” (Cancer Research Technology Limited, priority 2012, dated 2016).

Usually IC50 stands for the midpoint of a concentration-inhibition curve.

The structures appear in SMILES notation.

full length MPS1, sequence (P33981 whole entry): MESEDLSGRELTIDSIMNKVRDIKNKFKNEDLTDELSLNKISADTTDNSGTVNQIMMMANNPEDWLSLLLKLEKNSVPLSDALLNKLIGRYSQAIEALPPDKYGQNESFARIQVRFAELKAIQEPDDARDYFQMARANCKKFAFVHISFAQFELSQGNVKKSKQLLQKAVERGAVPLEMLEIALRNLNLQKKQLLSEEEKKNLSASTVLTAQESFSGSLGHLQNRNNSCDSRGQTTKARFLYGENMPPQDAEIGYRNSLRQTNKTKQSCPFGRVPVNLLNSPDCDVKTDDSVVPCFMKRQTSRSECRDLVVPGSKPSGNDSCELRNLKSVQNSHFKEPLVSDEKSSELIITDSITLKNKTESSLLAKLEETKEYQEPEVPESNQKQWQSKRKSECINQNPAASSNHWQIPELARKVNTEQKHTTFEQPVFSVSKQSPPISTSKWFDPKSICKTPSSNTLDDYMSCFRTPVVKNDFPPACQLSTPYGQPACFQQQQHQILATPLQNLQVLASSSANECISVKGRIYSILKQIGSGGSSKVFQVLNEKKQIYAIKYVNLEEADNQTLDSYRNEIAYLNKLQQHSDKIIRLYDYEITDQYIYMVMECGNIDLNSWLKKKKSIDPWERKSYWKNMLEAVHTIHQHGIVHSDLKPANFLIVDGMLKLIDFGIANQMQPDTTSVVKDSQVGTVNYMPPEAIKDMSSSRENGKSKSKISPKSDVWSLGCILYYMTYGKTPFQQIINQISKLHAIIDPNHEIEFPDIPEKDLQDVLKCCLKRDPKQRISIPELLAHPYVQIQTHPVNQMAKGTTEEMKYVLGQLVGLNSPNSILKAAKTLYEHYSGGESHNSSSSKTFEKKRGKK

The assay addresses full length MPS1 (Homo sapiens (Human), UniProt P33981). Briefly: Measurement of inhibition of MPS1 kinase (Caliper EZ reader mobility-shift enzyme assay). Format: biochemical. As to conditions: full length MPS1 12.5 nM or 3 nM, H236 peptide 5 μM, ATP 10 μM, 60 min at room temperature. The protocol:
Measurement of Inhibition of MPS1 Kinase
The reaction was carried out for 60 min at room temperature and stopped by the addition of buffer (10 μl) containing 20 mM EDTA, 0.05% (v/v) Brij-35, in 0.1M HEPES-buffered saline (Free acid, Sigma, UK). The plate was read on a Caliper EZ reader II (Caliper Life Sciences).
The % inhibition of the compounds is calculated relative to the means of selected control wells.
As to `COc1cc(-c2cnn(C)c2)ccc1Nc1ncc2ccnc(NCC3CCO3)c2n1` (stereo not shown) [Example 116, N^2-(2-methoxy-4-(1-methyl-1H-pyrazol-4-yl)phenyl)-N8-(oxetan-2-ylmethyl)pyrido[3,4-d]pyrimidine-2,8-diamine], the IC50 came to 8 nM.

`COc1cc(-c2cncn2C)ccc1Nc1ncc2ccnc(NCC(C)(C)C)c2n1` [Example 47, N2-(2-methoxy-4-(1-methyl-1H-imidazol-5-yl)phenyl)-N8-neopentylpyrido[3,4-d]pyrimidine-2,8-diamine]: the IC50 is 2 nM. To `COc1cc(-c2cnn(C)c2)ccc1Nc1ncc2ccnc(NC3COC3)c2n1` [Example 111, N^2-(2-methoxy-4-(1-methyl-1H-pyrazol-4-yl)phenyl)-N^8-(oxetan-3-yl)pyrido[3,4-d]pyrimidine-2,8-diamine] belongs above 1000 nM. The figure for `COc1cc(-c2cnn(C)c2)ccc1Nc1ncc2ccnc(NCC(C)(C)O)c2n1` [Example 71, 1-((2-((2-methoxy-4-(1-methyl-1H-pyrazol-4-yl)phenyl)amino)pyrido[3,4-d]pyrimidin-8-yl)amino)-2-methylpropan-2-ol] is 6 nM; for `COc1cc(-c2cnn(C)c2)ccc1Nc1ncc2ccnc(N(C)C)c2n1` [Example 108, N^2-(2-methoxy-4-(1-methyl-1H-pyrazol-4-yl)phenyl)-N^8,N^8-dimethylpyrido[3,4-d]pyrimidine-2,8-diamine] it is 16 nM; for `Cc1nnc(-c2ccc(Nc3ncc4ccnc(N5CCC6(COC6)C5)c4n3)c(Cl)c2)o1` [Example 201] it is 40 nM. With `CCOc1cc(-c2cnn(C)c2)ccc1Nc1ncc2ccnc(NCC3CC3)c2n1` [Example 101, N8-(cyclopropylmethyl)-N2-(2-ethoxy-4-(1-methyl-1H-pyrazol-4-yl)phenyl)pyrido[3,4-d]pyrimidine-2,8-diamine], the 50% inhibitory concentration (IC50) came to 49 nM.

As for `COc1cc(-c2cnn(C)c2)ccc1Nc1ncc2ccnc(N3CCC4(CCOC4)C3)c2n1` (stereo not shown) [Example 122, N-(2-methoxy-4-(1-methyl-1H-pyrazol-4-yl)phenyl)-8-(2-oxa-7-azaspiro[4.4]nonan-7-yl)pyrido[3,4-d]pyrimidin-2-amine], the IC50 came out at 3 nM. To `COc1cc(C(=O)N2CC(OC)C2)ccc1Nc1cc2c(-c3cn(C)nc3C)cccc2cn1` [Example 8, (4-((5-(1,3-dimethyl-1H-pyrazol-4-yl)isoquinolin-3-yl)amino)-3-methoxyphenyl)(3-methoxyazetidin-1-yl)methanone] belongs 27 nM; to `COc1cc(C(=O)N(C)C)ccc1Nc1ncc2ccnc(NCC(C)(C)OC)c2n1` [Example 194], 11 nM; to `COc1cc(-c2cnn(C)c2)ccc1Nc1ncc2ccnc(N3CC4(CCOC4)C3)c2n1` [Example 120, N-(2-methoxy-4-(1-methyl-1H-pyrazol-4-yl)phenyl)-8-(6-oxa-2-azaspiro[3.4]octan-2-yl)pyrido[3,4-d]pyrimidin-2-amine], 3 nM. The figure for `COc1cc(-c2cnn(C)c2)ccc1Nc1ncc2ccnc(N3CCN(C)CC3)c2n1` [Example 62, N-(2-methoxy-4-(1-methyl-1H-pyrazol-4-yl)phenyl)-8-(4-methylpiperazin-1-yl)pyrido[3,4-d]pyrimidin-2-amine] is 9 nM; for `CNc1nccc2cnc(Nc3ccc(-c4cnn(C)c4)cc3OC)nc12` [Example 110, N^2-(2-methoxy-4-(1-methyl-1H-pyrazol-4-yl)phenyl)-N^8-methylpyrido[3,4-d]pyrimidine-2,8-diamine] it is 17 nM. To `COc1cc(C(=O)N2CC(OC)C2)ccc1Nc1cc2c(-c3cnn(C)c3C)cccc2cn1` [Example 13, (4-((5-(1,5-dimethyl-1H-pyrazol-4-yl)isoquinolin-3-yl)amino)-3-methoxyphenyl)(3-methoxyazetidin-1-yl)methanone] belongs 12 nM; to `COc1cc(-c2cn(C)nc2C)ccc1Nc1ncc2ccnc(NCC3(C)CCOC3)c2n1` (stereo not shown) [Example 191], 2 nM; to `COC(C)(C)CNc1nccc2cnc(Nc3ccc(Cl)cc3OC(F)F)nc12` [Example 202], 70 nM.
